From US20260242419A1, “A CYCLIC PEPTIDE FOR TRAPPING INTERLEUKIN-1 BETA” (Merck Sharp & Dohme LLC, priority 2023, published 2026)
Read-outs that look alike come from different tables or passages of the source. Starred links: 1 amine or outer side, 2 acyl side, 3 side chain; linkers in the order of their positions; H or OH if unused. Non-standard residues stand in square brackets, D forms with d. Residues, ends and D or L forms follow the SMILES beside them. Phe(4-(4-Ac-piperazinyl)) = CC(=O)N1CCN(c2ccc(C[C@H](N)C(=O)O)cc2)CC1; X39 = CNc1ncc(-c2ccc(C[C@H]3CCN([*:1])[C@H]3C(=O)[*:2])cc2)cn1; dPro(4R-(4-pyridylmethyl)) = O=C(O)[C@H]1C[C@@H](Cc2ccncc2)CN1; X49 = Nc1cnc(-c2ccc(C[C@H]3CCN([*:1])[C@H]3C(=O)[*:2])cc2)cn1; Trp(βS-Me,4-F) = C[C@@H](c1c[nH]c2cccc(F)c12)[C@H](N)C(=O)O; Bip(4'-COOH) = N[C@@H](Cc1ccc(-c2ccc(C(=O)O)cc2)cc1)C(=O)O; Ala(1-bicyclo(1.1.1)pentyl) = N[C@@H](CC12CC(C1)C2)C(=O)O; dPro(4R-Bzl(4-F)) = O=C(O)[C@H]1C[C@@H](Cc2ccc(F)cc2)CN1; Phe(2-Cl,4-COOH) = N[C@@H](Cc1ccc(C(=O)O)cc1Cl)C(=O)O; Ala(pyrimidin-5-yl) = N[C@@H](Cc1cncnc1)C(=O)O; Phe(4-COOH) = N[C@@H](Cc1ccc(C(=O)O)cc1)C(=O)O; X34 = C[N+](C)(C)CC[C@H](N[*:1])C(=O)[*:2]; Bip = N[C@@H](Cc1ccc(-c2ccccc2)cc1)C(=O)O; Pro(cis-4-F) = O=C(O)[C@@H]1C[C@H](F)CN1; AEF = NCCOc1ccc(C[C@H](N)C(=O)O)cc1; cisHyp = O=C(O)[C@@H]1C[C@H](O)CN1; 4Pal = N[C@@H](Cc1ccncc1)C(=O)O; d(αMeS) = C[C@@](N)(CO)C(=O)O; Dab = NCC[C@H](N)C(=O)O; Aib = CC(C)(N)C(=O)O

Target: T1, IL-1β (Homo sapiens, UniProt P01584)
T1 construct: purchased BioLegend 579404
T1 sequence (P01584 117-269): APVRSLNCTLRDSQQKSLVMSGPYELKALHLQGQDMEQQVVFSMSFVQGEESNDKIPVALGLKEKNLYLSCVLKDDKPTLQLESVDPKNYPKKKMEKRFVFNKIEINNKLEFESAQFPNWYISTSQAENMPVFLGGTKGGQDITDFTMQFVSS
Experiment: IL-6 assay in MRC5 cells: inhibition of IL-1β induced IL-6 secretion (AlphaLISA)
Type: cell-based
Details: inhibition of IL-1β induced IL-6 secretion in MRC5 cells, read-out: MRC5 IC50
Method in brief: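 Compound was pre-incubated 1 h at ambient temperature with recombinant human IL-1β at 2λ EC80 before adding human lung fibroblast MRC5 cells (3000/well) in EMEM with 0.025% BSA. After overnight culture at 37 °C, 5% CO2, secreted IL-6 in conditioned medium was measured by AlphaLISA; IC50 from 4-parameter logistic fits.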

Q: For C[C@@H](c1c[nH]c2cccc(F)c12)[C@@H]1NC(=O)[C@@H]2C[C@H](F)CN2C(=O)CNC(=O)[C@H](Cc2ccc(C(=O)O)cc2)NC(=O)[C@H](Cc2ccncc2)NC(=O)[C@H](Cc2ccc(-c3ccc(C(=O)O)cc3)cc2)NC(=O)[C@H]2C[C@@H](Cc3ccc(F)cc3)CN2C(=O)CNC(=O)[C@H](CCN)NC(=O)[C@H](CCC(N)=O)NC(=O)[C@H](CC[N+](C)(C)C)NC(=O)C(C)(C)NC(=O)[C@H](Cc2c[nH]c3ccccc23)NC(=O)[C@H](CO)NC(=O)C(C)(C)NC1=O [Example 314] (cyclo([Bip(4'-COOH)][4Pal][Phe(4-COOH)]G[Pro(cis-4-F)][Trp(βS-Me,4-F)][Aib]SW[Aib][X34]Q[Dab]G[dPro(4R-Bzl(4-F))])), which IC50 is on record?
A: Its IC50 is 0.02 nM.

Q: With C[C@@H](c1c[nH]c2cccc(F)c12)[C@@H]1NC(=O)[C@@H]2C[C@H](F)CN2C(=O)CNC(=O)[C@H](Cc2ccc(C(=O)O)cc2)NC(=O)[C@H](Cc2ccncc2)NC(=O)[C@H](Cc2ccc(-c3ccccc3)cc2)NC(=O)[C@H]2C[C@@H](Cc3ccncc3)CN2C(=O)CNC(=O)[C@H](CCN)NC(=O)[C@H](CCC(N)=O)NC(=O)[C@@H](CCC(=O)O)NC(=O)C(C)(C)NC(=O)[C@H](Cc2c[nH]c3ccccc23)NC(=O)[C@H](CO)NC(=O)C(C)(C)NC1=O [Example 250] (cyclo([Bip][4Pal][Phe(4-COOH)]G[Pro(cis-4-F)][Trp(βS-Me,4-F)][Aib]SW[Aib][dE]Q[Dab]G[dPro(4R-(4-pyridylmethyl))])) as the compound, how does the IC50 (compound pre-incubated 1 hour with recombinant human IL-1β) read?
A: The IC50 was 0.027 nM.

Q: How did the IC50 turn out when CC(=O)N1CCN(c2ccc(C[C@@H]3NC(=O)[C@H]4C[C@@H](Cc5ccncc5)CN4C(=O)CNC(=O)[C@H](CCN)NC(=O)[C@H](CCC(N)=O)NC(=O)[C@H](Cc4cncnc4)NC(=O)C(C)(C)NC(=O)[C@H](Cc4c[nH]c5ccccc45)NC(=O)[C@H](CO)NC(=O)C(C)(C)NC(=O)[C@H]([C@@H](C)c4c[nH]c5cccc(F)c45)NC(=O)[C@@H]4C[C@H](F)CN4C(=O)CNC(=O)[C@H](Cc4ccc(C(=O)O)cc4Cl)NC(=O)[C@H](Cc4ccncc4)NC3=O)cc2)CC1 [Example 365] (cyclo([Phe(4-(4-Ac-piperazinyl))][4Pal][Phe(2-Cl,4-COOH)]G[Pro(cis-4-F)][Trp(βS-Me,4-F)][Aib]SW[Aib][Ala(pyrimidin-5-yl)]Q[Dab]G[dPro(4R-(4-pyridylmethyl))])) was run?
A: The IC50 was 0.023 nM.

Q: For CNc1ncc(-c2ccc(C[C@H]3CCN4C(=O)CNC(=O)[C@H](CCN)NC(=O)[C@H](CCC(N)=O)NC(=O)[C@H](Cc5cncnc5)NC(=O)C(C)(C)NC(=O)[C@H](Cc5c[nH]c6ccccc56)NC(=O)[C@H](CCC(=O)O)NC(=O)C(C)(C)NC(=O)[C@H]([C@@H](C)c5c[nH]c6cccc(F)c56)NC(=O)[C@@H]5C[C@H](F)CN5C(=O)CNC(=O)[C@H](Cc5ccc(C(=O)O)cc5)NC(=O)[C@H](Cc5ccncc5)NC(=O)[C@H](Cc5ccc(-c6ccc(C(=O)O)cc6)cc5)NC(=O)[C@@H]34)cc2)cn1 [Example 54] (cyclo([Bip(4'-COOH)][4Pal][Phe(4-COOH)]G[Pro(cis-4-F)][Trp(βS-Me,4-F)][Aib]EW[Aib][Ala(pyrimidin-5-yl)]Q[Dab]G[X39])), which IC50 is on record?
A: The IC50 was 0.021 nM.

Q: For C[C@@H](c1c[nH]c2cccc(F)c12)[C@@H]1NC(=O)[C@@H]2C[C@H](O)CN2C(=O)CNC(=O)[C@H](Cc2ccc(C(=O)O)cc2)NC(=O)[C@H](CC23CC(C2)C3)NC(=O)[C@H](Cc2ccc(-c3ccc(C(=O)O)cc3)cc2)NC(=O)[C@H]2C[C@@H](Cc3ccncc3)CN2C(=O)CNC(=O)[C@H](CCN)NC(=O)[C@H](CCC(N)=O)NC(=O)[C@H](Cc2cncnc2)NC(=O)[C@@](C)(CO)NC(=O)[C@H](Cc2c[nH]c3ccccc23)NC(=O)[C@H](CO)NC(=O)C(C)(C)NC1=O [Example 190] (cyclo([Bip(4'-COOH)][Ala(1-bicyclo(1.1.1)pentyl)][Phe(4-COOH)]G[cisHyp][Trp(βS-Me,4-F)][Aib]SW[d(αMeS)][Ala(pyrimidin-5-yl)]Q[Dab]G[dPro(4R-(4-pyridylmethyl))])), which IC50 is on record?
A: The IC50 was 0.019 nM.

Q: How did the IC50 turn out when C[C@@H](c1c[nH]c2cccc(F)c12)[C@@H]1NC(=O)[C@@H]2C[C@H](F)CN2C(=O)CNC(=O)[C@H](Cc2ccc(C(=O)O)cc2)NC(=O)[C@H](Cc2ccncc2)NC(=O)[C@H](Cc2ccc(-c3ccc(C(=O)O)cc3)cc2)NC(=O)[C@H]2[C@@H](Cc3ccc(-c4cnc(N)cn4)cc3)CCN2C(=O)CNC(=O)[C@H](CCN)NC(=O)[C@H](CCC(N)=O)NC(=O)[C@H](Cc2cncnc2)NC(=O)C(C)(C)NC(=O)[C@H](Cc2c[nH]c3ccccc23)NC(=O)[C@H](CCC(=O)O)NC(=O)C(C)(C)NC1=O [Example 57] (cyclo([Bip(4'-COOH)][4Pal][Phe(4-COOH)]G[Pro(cis-4-F)][Trp(βS-Me,4-F)][Aib]EW[Aib][Ala(pyrimidin-5-yl)]Q[Dab]G[X49])) was run?
A: Its IC50 is 0.019 nM.

Q: With CC(=O)NCCOc1ccc(C[C@@H]2NC(=O)[C@H]3C[C@@H](Cc4ccncc4)CN3C(=O)CNC(=O)[C@H](CCN)NC(=O)[C@H](CCC(N)=O)NC(=O)[C@H](Cc3cncnc3)NC(=O)C(C)(C)NC(=O)[C@H](Cc3c[nH]c4ccccc34)NC(=O)[C@H](CCC(=O)O)NC(=O)C(C)(C)NC(=O)[C@H]([C@@H](C)c3c[nH]c4cccc(F)c34)NC(=O)[C@@H]3C[C@H](F)CN3C(=O)CNC(=O)[C@H](Cc3ccc(C(=O)O)cc3)NC(=O)[C@H](CC34CC(C3)C4)NC2=O)cc1 [Example 50] (cyclo([AEF](Ac)[Ala(1-bicyclo(1.1.1)pentyl)][Phe(4-COOH)]G[Pro(cis-4-F)][Trp(βS-Me,4-F)][Aib]EW[Aib][Ala(pyrimidin-5-yl)]Q[Dab]G[dPro(4R-(4-pyridylmethyl))])) as the compound, how does the IC50 read?
A: Its IC50 is 0.044 nM.
